In paper PMC8186431, “Synthesis and biological evaluation of thiazolidinedione derivatives with high ligand efficiency to P. aeruginosa PhzS” (Journal of Enzyme Inhibition and Medicinal Chemistry, 2021):
“Also recorded” adds a separate entry of the source.

What was measured:
PhzS from P. aeruginosa = target: PhzS from P. aeruginosa; set-up: method as in PMID 32772556; details: Kd value calculated by microscale thermophoresis; cited from earlier work
PaPhzS = target: T1, PaPhzS (Pseudomonas aeruginosa, UniProt Q9HWG9); experiment: Compounds' affinity calculation by TSA (fraction of unfolded protein, DSFit software); assay type: binding, P. aeruginosa; details: for BEI (DSFit software): BEI: (pKd/MW)×1000, from DSFit Kd; for Kd: Kd (DSFit software), TSA, fraction of unfolded PaPhzS at 43 °C, PaPhzS 5 µM, ligand 3.12 to 200 µM; for LE (DSFit software): LE: 1.4*pKd/HA, from DSFit Kd
T1 construct: implied by pET28a and the HisTrap purification; made in house; host or cells: E. coli Rosetta (DE3)
T1 sequence (Q9HWG9 whole entry): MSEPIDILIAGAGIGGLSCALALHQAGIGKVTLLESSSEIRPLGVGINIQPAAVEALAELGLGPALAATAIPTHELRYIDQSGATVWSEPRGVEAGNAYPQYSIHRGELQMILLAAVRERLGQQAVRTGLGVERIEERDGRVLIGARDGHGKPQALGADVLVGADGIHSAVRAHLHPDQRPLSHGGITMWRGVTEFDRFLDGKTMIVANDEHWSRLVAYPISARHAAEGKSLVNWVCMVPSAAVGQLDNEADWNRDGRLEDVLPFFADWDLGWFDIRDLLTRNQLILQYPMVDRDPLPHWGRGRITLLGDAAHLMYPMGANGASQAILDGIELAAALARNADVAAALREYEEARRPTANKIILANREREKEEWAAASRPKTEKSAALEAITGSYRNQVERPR
Procedure: The effect of ligand’s concentration (ranging from 3.12 to 200 µM) over the PaPhzS Tm (5 µM final concentration) was evaluated using the same parameters described in section (2.2.2). […] The ΔCp value (0.69) required for this calculation was predicted by hydrophobic surface area-based method available on http://www.ibi.vu.nl/programs/bicepwww/. Briefly, the heat capacity (C) was calculated at two temperatures: 25 °C (before PhzS unfolding [T1]) and 50 °C (after PzhS unfolding [T2]) using Equation (2). C = 332.66 ± 18.9 X (273.15 − T) + 52089 ± 1353 (2) [drawing 2] where T stands for temperature in Kelvin. Therefore T1 = 298.15 K, T2 = 323.15 K.
Bai and co-workers devised an elegant workaround that limitation, which relies on the percentage of unfolded protein at a fixed temperature. […] According to Bai and co-workers (2019) Kd values close to the protein concentration (5 µM) or lower should be taken with scepticism. […] As these Kd values were obtained at a temperature higher than the physiologic one, we decided to employ an orthogonal assay to evaluate the compounds’ affinity. In order to achieve this goal, PaPhzS was labelled with FITC and the effects of different concentration of each inhibitor on the covalently modified PaPhzS was monitored at 25 °C (Figure 5).

[1] = target: T2, PhzS from P. aeruginosa (PaPhzS) (Pseudomonas aeruginosa, UniProt Q9HWG9); experiment: Thermal shift assay (TSA) screening of thiazolidinedione derivatives; assay type: binding; details: different concentrations (3.12–100.0 µM)
T2 construct: implied by pET28a and the HisTrap purification; made in house; host or cells: E. coli Rosetta (DE3)
T2 sequence (Q9HWG9 whole entry): as above
Procedure: TSA assays were performed on Applied Biosystems 7500 RT-PCR (Applied Biosystems, Foster City, CA USA), fitted with custom filter sets. All assays were carried out in triplicate on a 96-well PCR plate (PCR plates 96 well BioRad®), manually sealed with transparent capping strips (Flatcap strips BioRad®). The plates were centrifuged for 2 min, 2000 rpm, at 25 °C and then the fluorescence of SYPRO^TM orange (S6650) was monitored (excitation wavelength= 492 nm and emission wavelength= 610 nm), while the plate was heated from 25 to 85 °C, in increments of 1 °C per minute.
The TSA conditions employed in this work were previously optimised. Briefly, 5 µl of PaPhzS (5 µM final concentration), 1 µl of SYPRO^TM orange (5X), 13 µl of assay buffer (50 mM potassium phosphate, 300 mM NaCl, pH 8), and 1 µl DMSO (5% v/v), as a negative control, or the putative inhibitor (diluted in DMSO) were added to each well. All experiments were carried out in triplicate
Raw fluorescence data were recorded within the Applied Biosystems 7500 Software v2.0, and then exported to NAMI[52] for Tm calculation by the first-derivative method.

PaPhzS-FITC = target: T3, PaPhzS-FITC (Pseudomonas aeruginosa, UniProt Q9HWG9); experiment: Affinity to covalently modified PaPhzS (FITC fluorescence); assay type: binding, P. aeruginosa; details: for BEI (FITC): BEI: (pKd/MW)×1000, from PaPhzS-FITC Kd; for LE (FITC): LE: 1.4*pKd/HA, from PaPhzS-FITC Kd; for affinity to PaPhzS, in words: PaPhzS-FITC assay
T3 construct: implied by pET28a and the HisTrap purification); FITC (chemical covalent label, not a peptide; made in house; host or cells: E. coli Rosetta (DE3)
T3 sequence (Q9HWG9 whole entry): as above
Procedure: PaPhzS (2 mg/mL) was incubated with fluorescein-5-isothiocyanate (FITC) dye (6 mg/mL) containing 50 mM HEPES (pH 8.0) for 2 h, at 25 °C. Then, the solution was loaded on a Hi-Trap HP desalting column (GE Healthcare), previously equilibrated with 50 mM HEPES buffer (pH 8) and 2 CV of the same buffer were injected. The absorbance of the collected fractions was monitored at 280 nm and 490 nm and those with a molar ratio ranging from 0.3 and 1.0[55] were employed for the Kd calculation experiments, as follows: The fluorescence of PaPhzS-FITC, at 25 °C, using in a real-time thermocycler (AppliedBiosystem7500) equipped with the FAN filter (excitation 498 nm and emission 530 nm wavelengths) for 10 min in the presence of different concentrations of each compound (3.12–100.0 µM). The Raw fluorescence data, recorded within the Applied Biosystems 7500 Software v2.0, was employed for non-linear regression analysis (three parameters) (Equation 1), as available in GraphPad Prism 8.0 software (GraphPadV® Software, San Diego, CA, USA, www.graphpad.com). All experiments were carried out in triplicate using 96-well PCR plate (PCR plates 96 well BioRad®), manually sealed with transparent capping strips (Flatcap strips BioRad®).

melting point [°C]	SMILES	BEI (DSFit software) (PaPhzS)	Kd (PaPhzS) [µM]	LE (DSFit software) (PaPhzS)	concentration-response profile of ΔTm [1]	Kd (PaPhzS-FITC) [µM]	affinity to PaPhzS, in words (PaPhzS-FITC)	further results
201 to 202	O=C1S/C(=C\c2cc(Cl)ccc2O)C(=O)N1Cc1cccc(Cl)c1	–	–	–	–	–	–	–
196 to 197	Cc1ccc(/C=C2\SC(=O)NC2=O)cc1Br	–	–	–	–	–	–	–
118 to 119.5	O=C1NC(=O)/C(=C/c2cncc3ccccc23)S1	–	–	–	–	–	–	–
194 to 195	O=C1NC(=O)/C(=C/c2c(O)ccc3ccccc23)S1	–	–	–	–	–	–	–
174 to 176	COc1ccc(C(=O)CN2C(=O)S/C(=C\c3ccc(C)cc3)C2=O)cc1	–	–	–	–	–	–	–
–	O=C1NC(=O)/C(=C\c2ccc(OCc3nc4ccccc4c(=O)n3-c3ccccc3)cc2)S1 [A, (E)-5–(4-((4-oxo-3-phenyl-3,4-dihydroquinazolin-2-yl)methoxy)benzylidene)thiazolidine-2,4-dione, reference compound]	11.0	9.3	0.21	–	–	–	Kd (PhzS from P. aeruginosa): 18 µM
110 to 111	O=C1S/C(=C\c2c(Cl)cccc2Cl)C(=O)N1Cc1cccc(Cl)c1 [Compound 3, (Z)-3–(3-chlorobenzyl)-5–(2,6-dichlorobenzylidene)thiazolidine-2,4-dione]	–	–	–	–	–	–	–
–	O=C1NC(=O)C(=Cc2cc(Cl)cc(Br)c2O)S1 [Compound 15]	13.3	37.2	0.36	clear concentration-response profile	166 ± 0.5	low affinity; also recorded: reduced affinity	BEI (FITC) (PaPhzS-FITC): 11.4; LE (FITC) (PaPhzS-FITC): 0.31
–	O=C1NC(=O)/C(=C/c2cc(Cl)ccc2O)S1 [Compound 16]	21.0	4.2	0.47	clear concentration-response profile	6.18 ± 0.2	low micromolar ligands	BEI (FITC) (PaPhzS-FITC): 20.42; BEI (FITC) (PaPhzS-FITC; listed as Mol 16): 20.4; LE (FITC) (PaPhzS-FITC; listed as Mol 16): 0.45
–	COCn1cc(/C=C2\SC(=O)NC2=O)c2ccccc21 [Compound 33]	14.9	50	0.30	clear concentration-response profile	84.2 ± 0.2	low affinity	BEI (FITC) (PaPhzS-FITC): 14.1; LE (FITC) (PaPhzS-FITC): 0.28

SMILES	melting point [°C]	BEI (DSFit software) (PaPhzS)	Kd (PaPhzS) [µM]	LE (DSFit software) (PaPhzS)	concentration-response profile of ΔTm [1]	Kd (PaPhzS-FITC) [µM]	affinity to PaPhzS, in words (PaPhzS-FITC)	further results
COc1ccc(/C=C2\SC(=O)NC2=O)c(Br)c1O [Compound 20, (Z) 5–(2-bromo-3-hydroxy-4-methoxybenzylidene)thiazolidine-2,4-dione]	245	15.0	10.5	0.38	clear concentration-response profile	3.3 ± 0.3	low micromolar ligands	BEI (FITC) (PaPhzS-FITC; listed as Mol 20): 16.6; LE (FITC) (PaPhzS-FITC; listed as Mol 20): 0.42
COc1cc(OC)c(OC)cc1/C=C1\SC(=O)NC1=O [Compound 28, (Z-5–(2,4,5-trimethoxybenzylidene)thiazolidine-2,4-dione)]	158 to 160	–	–	–	clear concentration-response profile	–	–	–
O=C1NC(=O)/C(=C/C=C/c2ccccc2[N+](=O)[O-])S1 [Compound 38, (Z)-5-((E)-3–(2-nitrophenyl)allylidene)thiazolidine-2,4-dione]	119 to 120	–	–	–	small variation in ΔTm	–	–	–
